Experimental data taken from PubChem BioAssay (NCI).
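96-well plates; 48 h exposure; 5 concentrations. Endpoints by linear interpolation between flanking doses. Not reached: highest tested concentration assigned. TGI: concentration producing complete growth inhibition.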

What was measured:
Test in all cases: NCI tumour cell line growth inhibition, 48 h
786-0 renal = tested on: 786-0 renal
A498 renal = tested on: A498 renal
A549 NSCLC = tested on: A549 NSCLC
ACHN renal = tested on: ACHN renal
BT-549 breast = tested on: BT-549 breast
CAKI-1 renal = tested on: CAKI-1 renal
CCRF-CEM leukemia = tested on: CCRF-CEM leukemia
COLO 205 colon = tested on: COLO 205 colon
DLD-1 colon = tested on: DLD-1 colon
DMS 114 small cell lung = tested on: DMS 114 small cell lung
DMS 273 small cell lung = tested on: DMS 273 small cell lung
DU-145 prostate = tested on: DU-145 prostate
EKVX NSCLC = tested on: EKVX NSCLC
HCC-2998 colon = tested on: HCC-2998 colon
HCT-116 colon = tested on: HCT-116 colon
HCT-15 colon = tested on: HCT-15 colon
HL-60(TB) leukemia = tested on: HL-60(TB) leukemia
HOP-18 NSCLC = tested on: HOP-18 NSCLC
HOP-62 NSCLC = tested on: HOP-62 NSCLC
HOP-92 NSCLC = tested on: HOP-92 NSCLC
HS 578T breast = tested on: HS 578T breast
HT29 colon = tested on: HT29 colon
IGROV1 ovarian = tested on: IGROV1 ovarian
K-562 leukemia = tested on: K-562 leukemia
KM12 colon = tested on: KM12 colon
KM20L2 colon = tested on: KM20L2 colon
LOX IMVI melanoma = tested on: LOX IMVI melanoma
LXFL 529 NSCLC = tested on: LXFL 529 NSCLC
M14 melanoma = tested on: M14 melanoma
M19-MEL melanoma = tested on: M19-MEL melanoma
MALME-3M melanoma = tested on: MALME-3M melanoma
MCF7 breast = tested on: MCF7 breast
MDA-MB-231 breast = tested on: MDA-MB-231 breast
MDA-MB-435 = tested on: MDA-MB-435
MDA-N = tested on: MDA-N
MOLT-4 leukemia = tested on: MOLT-4 leukemia
NCI-H226 lung = tested on: NCI-H226 lung
NCI-H23 lung = tested on: NCI-H23 lung
NCI-H460 lung = tested on: NCI-H460 lung
NCI-H522 lung = tested on: NCI-H522 lung
NCI/ADR-RES ovarian = tested on: NCI/ADR-RES ovarian
OVCAR-3 ovarian = tested on: OVCAR-3 ovarian
OVCAR-4 ovarian = tested on: OVCAR-4 ovarian
OVCAR-5 ovarian = tested on: OVCAR-5 ovarian
OVCAR-8 ovarian = tested on: OVCAR-8 ovarian
PC-3 prostate = tested on: PC-3 prostate
RPMI-8226 leukemia = tested on: RPMI-8226 leukemia
RXF 393 renal = tested on: RXF 393 renal
RXF-631 renal = tested on: RXF-631 renal
SF-268 CNS = tested on: SF-268 CNS
SF-295 CNS = tested on: SF-295 CNS
SF-539 CNS = tested on: SF-539 CNS
SK-MEL-2 melanoma = tested on: SK-MEL-2 melanoma
SK-MEL-28 melanoma = tested on: SK-MEL-28 melanoma
SK-MEL-5 melanoma = tested on: SK-MEL-5 melanoma
SK-OV-3 ovarian = tested on: SK-OV-3 ovarian
SN12C renal = tested on: SN12C renal
SNB-19 CNS = tested on: SNB-19 CNS
SNB-75 CNS = tested on: SNB-75 CNS
SNB-78 CNS = tested on: SNB-78 CNS
SR leukemia = tested on: SR leukemia
SW-620 colon = tested on: SW-620 colon
T-47D breast = tested on: T-47D breast
TK-10 renal = tested on: TK-10 renal
U251 CNS = tested on: U251 CNS
UACC-257 melanoma = tested on: UACC-257 melanoma
UACC-62 melanoma = tested on: UACC-62 melanoma
UO-31 renal = tested on: UO-31 renal
XF 498 CNS = tested on: XF 498 CNS
P388 leukemia = tested on: P388 leukemia
SN12K1 renal = tested on: SN12K1 renal

## Cn1c(=O)nc2n(-c3ccc(Cl)cc3)c3cc(Cl)ccc3nc-2c1=O
786-0 renal
  TGI: 23.7 µM
A498 renal
  TGI: 27.6 µM
A549 NSCLC
  TGI: 33 µM
ACHN renal
  TGI: 25.5 µM
BT-549 breast
  TGI: 7.17 µM
CAKI-1 renal
  TGI: 20.7 µM
CCRF-CEM leukemia
  TGI: 33.2 µM
COLO 205 colon
  TGI: 5.14 µM
DLD-1 colon
  TGI: 3.9 µM
DMS 114 small cell lung
  TGI: 3.8 µM
DMS 273 small cell lung
  TGI: 12.5 µM
DU-145 prostate
  TGI: 29 µM
EKVX NSCLC
  TGI: 17.7 µM
HCC-2998 colon
  TGI: 14.1 µM
HCT-116 colon
  TGI: 10 µM
HCT-15 colon
  TGI: 3.69 µM
HL-60(TB) leukemia
  TGI: 5.66 µM
HOP-18 NSCLC
  TGI: 28.3 µM
HOP-62 NSCLC
  TGI: 33.2 µM
HOP-92 NSCLC
  TGI: 18.5 µM
HS 578T breast
  TGI: 5.59 µM
HT29 colon
  TGI: 9.57 µM
IGROV1 ovarian
  TGI: 3.74 µM
K-562 leukemia
  TGI: 5.41 µM
KM12 colon
  TGI: 25.6 µM
KM20L2 colon
  TGI: 35.7 µM
LOX IMVI melanoma
  TGI: 5.84 µM
LXFL 529 NSCLC
  TGI: 3.13 µM
M14 melanoma
  TGI: 4.21 µM
M19-MEL melanoma
  TGI: 3.53 µM
MALME-3M melanoma
  TGI: 3.44 µM
MCF7 breast
  TGI: 2.8 µM
MDA-MB-231 breast
  TGI: 6.91 µM
MDA-MB-435
  TGI: 3.14 µM
MDA-N
  TGI: 3.09 µM
MOLT-4 leukemia
  TGI: 16.5 µM
NCI-H226 lung
  TGI: 42.5 µM
NCI-H23 lung
  TGI: 6.06 µM
NCI-H460 lung
  TGI: 27.1 µM
NCI-H522 lung
  TGI: 6.36 µM
NCI/ADR-RES ovarian
  TGI: 35.6 µM
OVCAR-3 ovarian
  TGI: 4.19 µM
OVCAR-4 ovarian
  TGI: 2.53 µM
OVCAR-5 ovarian
  TGI: 29.1 µM
OVCAR-8 ovarian
  TGI: 6.2 µM
PC-3 prostate
  TGI: 24.1 µM
RPMI-8226 leukemia
  TGI: 22.8 µM
RXF 393 renal
  TGI: 9.25 µM
RXF-631 renal
  TGI: 4.22 µM
SF-268 CNS
  TGI: 7.23 µM
SF-295 CNS
  TGI: 23.7 µM
SF-539 CNS
  TGI: 30.4 µM
SK-MEL-2 melanoma
  TGI: 5.63 µM
SK-MEL-28 melanoma
  TGI: 7.19 µM
SK-MEL-5 melanoma
  TGI: 3.07 µM
SK-OV-3 ovarian
  TGI: 34.6 µM
SN12C renal
  TGI: 13.9 µM
SNB-19 CNS
  TGI: 27.9 µM
SNB-75 CNS
  TGI: 14.8 µM
SNB-78 CNS
  TGI: > 57.4 µM
SR leukemia
  TGI: 29.8 µM
SW-620 colon
  TGI: 4.22 µM
T-47D breast
  TGI: 2.03 µM
TK-10 renal
  TGI: 37 µM
U251 CNS
  TGI: 33 µM
UACC-257 melanoma
  TGI: 3.51 µM
UACC-62 melanoma
  TGI: 3.57 µM
UO-31 renal
  TGI: 24.2 µM
XF 498 CNS
  TGI: 2.73 µM

## CN(C)CCNC(=O)c1cc(Cl)cc2cc3ccccc3nc12
A498 renal
  TGI: 2.2 µM
A549 NSCLC
  TGI: 3.88 µM
CCRF-CEM leukemia
  TGI: 3.28 µM
COLO 205 colon
  TGI: 1.66 µM
DLD-1 colon
  TGI: 5.35 µM
DMS 114 small cell lung
  TGI: 2.21 µM
DMS 273 small cell lung
  TGI: 2.71 µM
EKVX NSCLC
  TGI: 4.81 µM
HCC-2998 colon
  TGI: 3.15 µM
HCT-116 colon
  TGI: 7 µM
HCT-15 colon
  TGI: 11.4 µM
HL-60(TB) leukemia
  TGI: 2.62 µM
HOP-18 NSCLC
  TGI: 21.3 µM
HOP-62 NSCLC
  TGI: 5.04 µM
HT29 colon
  TGI: 2.41 µM
IGROV1 ovarian
  TGI: 8.32 µM
KM12 colon
  TGI: 10.1 µM
KM20L2 colon
  TGI: 1.42 µM
LOX IMVI melanoma
  TGI: 2.6 µM
M19-MEL melanoma
  TGI: 3.56 µM
MALME-3M melanoma
  TGI: 14.9 µM
MCF7 breast
  TGI: 4.53 µM
NCI-H226 lung
  TGI: 3.89 µM
NCI-H23 lung
  TGI: 3.42 µM
NCI-H460 lung
  TGI: 2.41 µM
NCI/ADR-RES ovarian
  TGI: 5.82 µM
OVCAR-3 ovarian
  TGI: 16 µM
OVCAR-4 ovarian
  TGI: 8.04 µM
OVCAR-5 ovarian
  TGI: 1.97 µM
OVCAR-8 ovarian
  TGI: 6.18 µM
P388 leukemia
  TGI: 20.1 µM
RPMI-8226 leukemia
  TGI: 8.29 µM
RXF 393 renal
  TGI: 2.81 µM
SF-268 CNS
  TGI: 4.53 µM
SF-295 CNS
  TGI: 2.85 µM
SF-539 CNS
  TGI: 3.84 µM
SK-MEL-2 melanoma
  TGI: 3.76 µM
SK-MEL-28 melanoma
  TGI: 3.76 µM
SK-MEL-5 melanoma
  TGI: 2.6 µM
SK-OV-3 ovarian
  TGI: 9.27 µM
SN12C renal
  TGI: 6.9 µM
SN12K1 renal
  TGI: 3.34 µM
SNB-19 CNS
  TGI: 7.47 µM
SNB-75 CNS
  TGI: 6.09 µM
SNB-78 CNS
  TGI: 7.56 µM
SW-620 colon
  TGI: 7.02 µM
U251 CNS
  TGI: 8.4 µM
UACC-257 melanoma
  TGI: 3.66 µM
UACC-62 melanoma
  TGI: 1.98 µM
UO-31 renal
  TGI: 4.12 µM
XF 498 CNS
  TGI: 3.37 µM
